Assay results taken from patent US11141464B2, “GLP-1 polypeptide having GLP-1 receptor agonist activity and use thereof” (Liu Jianning, priority 2018, dated 2021).
Where no end group is shown, it is not given here.

What was measured:
[1] = test system: STZ rats; assay: Efficacy study by subcutaneous administration in the experimental animal model of type 2 diabetes (STZ rats), blood glucose; format: in vivo, Male Wistar rats; conditions: for Blood glucose concentration at 0 hour (mM, mean ± sem): 0 hour (start of experiment, time of injection)
Protocol: 1) The Experimental Animal Model of Type 2 Diabetes Male Wistar rats of approximately 200 grams were fasted overnight with free access to water. The rats were administered a single dose of streptozotocin (STZ) by intraperitoneal injection (ip) in an amount of 45 mg/Kg. Then, the rats were normally fed and tested for fasting blood glucose. […] 2) Experimental Method Forty-eight rats were randomly divided into 6 groups, with each of 8 rats. […] At 0 hour, the STZ rats were injected subcutaneously with different doses of drugs for test. At 3, 6, and 9 hours, blood samples were taken from the vein of the rats' tail. The blood samples were tested to provide the blood glucose concentrations of the rats.

[2] = test system: patients with type 2 diabetes; conditions: after 6 weeks of GLP-1 treatment; cited from earlier work
[3] = target: dipeptidyl peptidase IV (DPP-IV) (Homo sapiens, UniProt P27487); conditions: variants with the 8-position alanine replaced, compared with GLP-1 or its fragment; cited from earlier work
Chain of dipeptidyl peptidase IV (DPP-IV) (P27487 whole entry, species assumed, the tested form may be a part): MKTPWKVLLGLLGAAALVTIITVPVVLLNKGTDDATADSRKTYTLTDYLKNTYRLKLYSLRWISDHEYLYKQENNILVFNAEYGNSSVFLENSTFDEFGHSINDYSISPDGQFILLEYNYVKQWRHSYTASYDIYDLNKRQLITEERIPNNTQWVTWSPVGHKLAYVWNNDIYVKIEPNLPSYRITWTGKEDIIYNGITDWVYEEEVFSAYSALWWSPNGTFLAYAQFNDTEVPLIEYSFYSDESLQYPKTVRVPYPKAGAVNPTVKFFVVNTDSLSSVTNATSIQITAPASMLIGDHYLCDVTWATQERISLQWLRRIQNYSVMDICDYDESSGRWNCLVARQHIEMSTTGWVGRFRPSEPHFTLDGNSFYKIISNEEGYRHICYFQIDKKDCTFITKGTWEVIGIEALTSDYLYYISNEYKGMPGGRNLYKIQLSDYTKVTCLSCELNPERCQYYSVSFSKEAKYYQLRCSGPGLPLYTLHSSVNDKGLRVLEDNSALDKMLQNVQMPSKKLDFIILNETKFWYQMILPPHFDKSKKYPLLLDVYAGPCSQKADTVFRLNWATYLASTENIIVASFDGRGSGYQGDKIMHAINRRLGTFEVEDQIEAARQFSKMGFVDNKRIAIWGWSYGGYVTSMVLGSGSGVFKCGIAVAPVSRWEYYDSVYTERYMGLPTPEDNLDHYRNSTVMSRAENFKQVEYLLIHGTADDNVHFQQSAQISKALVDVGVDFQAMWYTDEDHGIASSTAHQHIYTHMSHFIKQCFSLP

His-Gly-Glu-Gly-Thr-Phe-Pro-Ser-Asp-Val-Ser-Ser-Tyr-Leu-Glu-Gly-Gln-Ala-Ala-Lys-Glu-Phe-Ile-Ala-Trp-Leu-Val-Lys-Gly-Arg-NH2 (HGEGTFPSDVSSYLEGQAAKEFIAWLVKGR-NH2) [Gly^8-Pro^13-GLP-1(7-36)NH2, GLP-1 polypeptide with T13P mutation]
Blood glucose concentration at 0 hour (mM, mean ± sem) ([1]; 1 μg/kg subcutaneous): 27.4 ± 0.8 mM
Blood glucose concentration at 3 hour (mM, mean ± sem) ([1]; 1 μg/kg subcutaneous): 23.4 ± 1.1 mM
Blood glucose concentration at 6 hour (mM, mean ± sem) ([1]; 1 μg/kg subcutaneous): 19.5 ± 0.5 mM
Blood glucose concentration at 9 hour (mM, mean ± sem) ([1]; 1 μg/kg subcutaneous): 16.3 ± 0.7 mM
Blood glucose concentration at 0 hour (mM, mean ± sem) ([1]; 10 μg/kg subcutaneous): 24.0 ± 1.1 mM
Blood glucose concentration at 3 hour (mM, mean ± sem) ([1]; 10 μg/kg subcutaneous): 18.5 ± 0.9 mM
Blood glucose concentration at 6 hour (mM, mean ± sem) ([1]; 10 μg/kg subcutaneous): 14.5 ± 0.8 mM
Blood glucose concentration at 9 hour (mM, mean ± sem) ([1]; 10 μg/kg subcutaneous): 10.5 ± 0.6 mM
blood-glucose lowering effect compared with reference drugs ([1]; subcutaneous, comparison from the data of Table 1 (vs Liraglutide P<0.01)): significantly better than that of Liraglutide

^1HDEFERHAEGTFTSDVSSYLEGQAAKEFIAWLVKGRG [GLP-1, Glucagon-like peptide-1, a polypeptide containing 37 amino acids]
average weight loss [2]: 1.9 kg

Ser^8-GLP-1 (HDEFERHSEGTFTSDVSSYLEGQAAKEFIAWLVKGRG; Glucagon-like peptide 1; UniProt P01275 92-128, looked up, variant A8S) [variant obtained by replacing the 8-position alanine of GLP-1 or a fragment thereof with serine]
resistance to DPP-IV mediated degradation [3]: increased resistance

Gly^8-GLP-1 (HDEFERHGEGTFTSDVSSYLEGQAAKEFIAWLVKGRG; Glucagon-like peptide 1; UniProt P01275 92-128, looked up, variant A8G) [variant obtained by replacing the 8-position alanine of GLP-1 or a fragment thereof with glycine]
resistance to DPP-IV mediated degradation [3]: increased resistance

Thr^8-GLP-1 (HDEFERHTEGTFTSDVSSYLEGQAAKEFIAWLVKGRG; Glucagon-like peptide 1; UniProt P01275 92-128, looked up, variant A8T) [variant obtained by replacing the 8-position alanine of GLP-1 or a fragment thereof with threonine]
resistance to DPP-IV mediated degradation [3]: increased resistance
